Test results taken from paper PMC1664607 (PLoS Medicine, 2006).
In brackets after ≈: the same amount, converted by molar mass. Where two headings read alike, the source gives them in different places.

Legend:
[1] = test system: M. tuberculosis ATCC 35822 (H37Rv-H-R); assay: microbe, parasite or virus in culture; assay type: cell-based; conditions: Mycobacterium tuberculosis, 336 h
[2] = test system: Salmonella tyiphimurium TA98, TA100, TA1535, and TA1537, and Escherichia coli WP2 uvrA; assay: Bacterial reverse mutation (BRM) test, overall result; assay type: cell-based; conditions: absence and presence of S9 mix, OECD Guideline 471
Description: (§1) The BRM test was performed in accordance with OECD Guideline 471 using Salmonella tyiphimurium TA98, TA100, TA1535, and TA1537, and Escherichia coli WP2 uvrA [11]. Each bacterial strain was pre-cultured at 37 °C for 18 h using a nutrient broth (Nissui Pharmaceutical; http://www.nissui-pharm.co.jp/index_e.html). After adjustment to 2.4 at OD660 nm, each bacterial suspension was added to a test tube containing the designated compound in the absence or presence of rat liver microsome (S9) mix. After a 20-min incubation at 37 °C, top agar was added to each test tube and the contents were poured into minimum essential medium (Oriental Yeast; http://www.oyc.co.jp/e/index.htm). The number of revertants was counted 48 h after incubation at 37 °C.

[3] = test system: clinically isolated M. tuberculosis (27 test strains); assay: Checkerboard method, combination with existing TB drugs; assay type: cell-based; conditions: antagonism = FIC index >4.0
Description: In addition, the efficacy of OPC-67683 in combination with currently used anti-TB drugs RFP, INH, EB, and SM was examined in vitro using the checkerboard method.

CYP2A6 = target: T1, CYP2A6 (Homo sapiens, UniProt P11509); assay: Coumarin 7-hydroxylation in human liver microsomes; assay type: in vitro ADME; conditions: 2 μM coumarin
T1 construct: Standard incubation mixtures of 0.5 ml contained microsomal protein (0.1–0.5 mg); from tissue; host or cells: pooled human liver microsomes (ten donors)
T1 sequence (P11509 1-494): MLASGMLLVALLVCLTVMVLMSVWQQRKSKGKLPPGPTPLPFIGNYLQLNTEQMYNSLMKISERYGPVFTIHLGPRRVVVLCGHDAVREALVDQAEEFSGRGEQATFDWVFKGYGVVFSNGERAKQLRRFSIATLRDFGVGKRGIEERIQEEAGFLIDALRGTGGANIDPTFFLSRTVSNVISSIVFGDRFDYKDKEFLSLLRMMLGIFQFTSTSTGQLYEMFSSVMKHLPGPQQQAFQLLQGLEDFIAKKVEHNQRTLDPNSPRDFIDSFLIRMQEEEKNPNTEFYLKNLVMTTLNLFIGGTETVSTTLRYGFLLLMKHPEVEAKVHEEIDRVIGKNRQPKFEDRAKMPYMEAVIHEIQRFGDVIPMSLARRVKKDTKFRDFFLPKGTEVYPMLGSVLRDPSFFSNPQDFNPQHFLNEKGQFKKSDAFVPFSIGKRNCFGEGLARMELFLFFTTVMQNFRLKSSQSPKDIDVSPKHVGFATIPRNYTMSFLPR

CYP2C19 = target: T2, CYP2C19 (Homo sapiens, UniProt P33261); assay: S-mephenytoin 4′ -hydroxylation in human liver microsomes; assay type: in vitro ADME; conditions: 100 μM S-mephenytoin
T2 construct: Standard incubation mixtures of 0.5 ml contained microsomal protein (0.1–0.5 mg); from tissue; host or cells: pooled human liver microsomes (ten donors)
T2 sequence (P33261 whole entry): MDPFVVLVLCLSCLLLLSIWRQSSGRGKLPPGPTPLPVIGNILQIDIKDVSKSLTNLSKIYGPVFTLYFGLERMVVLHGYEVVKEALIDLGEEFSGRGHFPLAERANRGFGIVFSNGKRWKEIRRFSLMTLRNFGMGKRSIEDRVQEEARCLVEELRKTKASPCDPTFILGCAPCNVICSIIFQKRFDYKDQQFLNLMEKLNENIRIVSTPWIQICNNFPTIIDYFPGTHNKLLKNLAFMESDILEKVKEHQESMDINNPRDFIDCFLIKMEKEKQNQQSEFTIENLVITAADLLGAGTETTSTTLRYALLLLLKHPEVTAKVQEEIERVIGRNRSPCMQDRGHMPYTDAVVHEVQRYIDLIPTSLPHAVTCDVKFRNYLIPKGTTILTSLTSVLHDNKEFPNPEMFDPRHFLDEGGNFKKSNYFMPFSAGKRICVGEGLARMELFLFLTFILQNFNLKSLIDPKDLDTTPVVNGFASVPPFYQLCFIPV

[4] = test system: intracellular M. tuberculosis H37Rv in THP-1 cells; assay: Activity against intracellular mycobacteria, 4-h pulsed exposure; assay type: cell-based, M. tuberculosis; human THP-1 cells; conditions: further 68-h culture
[5] = assay type: in vitro ADME, human, rat, mouse, dog, rabbit, and monkey; conditions: 2 h
Description: The study was undertaken to investigate the metabolites produced by the metabolic reactions of OPC-67683 using human, rat, mouse, dog, rabbit, and monkey liver microsomes. Pooled human liver microsomes (20 mg/ml) from ten donors were prepared at the Biomedical Research Institute, Human and Animal Bridge Discussion Group (Chiba, Japan). Human liver samples were legally procured from the National Disease Research Interchange (http://www.ndriresource.org/) through the international partnership with the Human and Animal Bridge Discussion Group. The study was conducted in accordance with the Declaration of Helsinki.
The reactions were performed in duplicate in a shaking water bath at 37 °C for 2 h. The incubation mixtures were extracted with acetonitrile and ethyl acetate, and the samples were analyzed by HPLC and LC-ESI-MS/MS.

S. typhimurium TA98 = assay: Bacterial reverse mutation (BRM) test; assay type: cell-based
Description: as §1

S. typhimurium TA1537 = assay: Bacterial reverse mutation (BRM) test; assay type: cell-based
Description: as §1

E. coli WP2 uvr A = assay: Bacterial reverse mutation (BRM) test; assay type: cell-based
Description: as §1

CYP1A1/2 = assay: 7-Ethoxyresorufin O-deethylation in human liver microsomes; assay type: in vitro ADME; conditions: 0.5 μM 7-ethoxyresorufin
[6] = test system: M. tuberculosis ATCC 35837 (H37Rv-E-R); assay: microbe, parasite or virus in culture; assay type: cell-based; conditions: Mycobacterium tuberculosis, 336 h
[7] = test system: mycolic acid synthesis in M. bovis BCG; assay: microbe, parasite or virus in culture; assay type: cell-based; conditions: for IC50: Mycobacterium tuberculosis variant bovis BCG, BCG
[8] = test system: M. tuberculosis ATCC 25618 (H37Rv); assay: Susceptibility testing (agar dilution MIC); assay type: cell-based; conditions: Mycobacterium tuberculosis, 336 h; 7H11 agar, 37 °C, 14 d; read-out: MIC
CYP2D6 = target: T3, CYP2D6 (Homo sapiens, UniProt P10635); assay: Bufuralol 1′ -hydroxylation in human liver microsomes; assay type: in vitro ADME; conditions: 20 μM bufuralol
T3 construct: Standard incubation mixtures of 0.5 ml contained microsomal protein (0.1–0.5 mg); from tissue; host or cells: pooled human liver microsomes (ten donors)
T3 sequence (P10635 whole entry): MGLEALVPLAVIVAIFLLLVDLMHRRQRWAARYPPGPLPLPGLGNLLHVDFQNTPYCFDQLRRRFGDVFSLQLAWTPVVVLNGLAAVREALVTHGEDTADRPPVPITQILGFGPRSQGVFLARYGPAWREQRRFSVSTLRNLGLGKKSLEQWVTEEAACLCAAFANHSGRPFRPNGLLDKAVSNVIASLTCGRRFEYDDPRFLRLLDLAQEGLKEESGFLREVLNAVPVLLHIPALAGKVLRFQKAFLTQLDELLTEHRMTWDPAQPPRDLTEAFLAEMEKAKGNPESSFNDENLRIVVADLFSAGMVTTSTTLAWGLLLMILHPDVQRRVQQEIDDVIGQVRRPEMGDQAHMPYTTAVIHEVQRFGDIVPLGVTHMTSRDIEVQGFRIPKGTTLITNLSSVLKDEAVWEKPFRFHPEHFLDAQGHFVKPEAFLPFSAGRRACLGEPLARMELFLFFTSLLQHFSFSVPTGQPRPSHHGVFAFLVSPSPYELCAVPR

[9] = test system: M. tuberculosis ATCC 35820 (H37Rv-S-R); assay: microbe, parasite or virus in culture; assay type: cell-based; conditions: Mycobacterium tuberculosis, 336 h

C[C@]1(COc2ccc(N3CCC(Oc4ccc(OC(F)(F)F)cc4)CC3)cc2)Cn2cc([N+](=O)[O-])nc2O1 [OPC-67683, (R)-2-methyl-6-nitro-2-(4-[4-(4-trifluoromethoxyphenoxy)piperidin-1-yl]phenoxymethyl}-2,3-dihydroimidazo[2,1-b]oxazole]
MIC [1]: 0.012 µg/mL (≈ 0.0225 µM)
Mutagenic potential in the BRM test [2]: did not show mutagenicity
Antagonistic activity in combination with RFP, INH, EB, and SM [3]: no antagonistic activity
Percent of Control (CYP2A6; 10 μM): 103.1% of Control
Percent of Control (CYP2A6; 30 μM): 97.8% of Control
Percent of Control (CYP2C19; 10 μM): 113.3% of Control
Percent of Control (CYP2C19; 100 μM): 107.6% of Control
Activity against intracellular M. tuberculosis H37Rv [4]: highly active
Stability in the in vitro metabolism of liver microsomes [5]: stable
Revertants/Plate (S. typhimurium TA98; S9 mix +, 312.5 μg/plate): 31 Revertants/Plate
Revertants/Plate (S. typhimurium TA98; S9 mix +, 625 μg/plate): 31 Revertants/Plate
Revertants/Plate (S. typhimurium TA98; S9 mix +, 1,250 μg/plate): 30 Revertants/Plate
Revertants/Plate (S. typhimurium TA98; S9 mix +, 2,500 μg/plate): 31 Revertants/Plate
Revertants/Plate (S. typhimurium TA98; S9 mix +, 5,000 μg/plate): 35 Revertants/Plate
Revertants/Plate (S. typhimurium TA98; S9 mix −, 312.5 μg/plate): 29 Revertants/Plate
Revertants/Plate (S. typhimurium TA98; S9 mix −, 625 μg/plate): 29 Revertants/Plate
Revertants/Plate (S. typhimurium TA98; S9 mix −, 1,250 μg/plate): 34 Revertants/Plate
Revertants/Plate (S. typhimurium TA98; S9 mix −, 2,500 μg/plate): 37 Revertants/Plate
Revertants/Plate (S. typhimurium TA98; S9 mix −, 5,000 μg/plate): 31 Revertants/Plate
Revertants/Plate (S. typhimurium TA1537; S9 mix +, 312.5 μg/plate): 73 Revertants/Plate
Revertants/Plate (S. typhimurium TA1537; S9 mix +, 625 μg/plate): 72 Revertants/Plate
Revertants/Plate (S. typhimurium TA1537; S9 mix +, 1,250 μg/plate): 66 Revertants/Plate
Revertants/Plate (S. typhimurium TA1537; S9 mix +, 2,500 μg/plate): 63 Revertants/Plate
Revertants/Plate (S. typhimurium TA1537; S9 mix +, 5,000 μg/plate): 74 Revertants/Plate
Revertants/Plate (S. typhimurium TA1537; S9 mix −, 312.5 μg/plate): 60 Revertants/Plate
Revertants/Plate (S. typhimurium TA1537; S9 mix −, 625 μg/plate): 62 Revertants/Plate
Revertants/Plate (S. typhimurium TA1537; S9 mix −, 1,250 μg/plate): 54 Revertants/Plate
Revertants/Plate (S. typhimurium TA1537; S9 mix −, 2,500 μg/plate): 61 Revertants/Plate
Revertants/Plate (S. typhimurium TA1537; S9 mix −, 5,000 μg/plate): 63 Revertants/Plate
Revertants/Plate (E. coli WP2 uvr A; S9 mix +, 312.5 μg/plate): 23 Revertants/Plate
Revertants/Plate (E. coli WP2 uvr A; S9 mix +, 625 μg/plate): 20 Revertants/Plate
Revertants/Plate (E. coli WP2 uvr A; S9 mix +, 1,250 μg/plate): 25 Revertants/Plate
Revertants/Plate (E. coli WP2 uvr A; S9 mix +, 2,500 μg/plate): 23 Revertants/Plate
Revertants/Plate (E. coli WP2 uvr A; S9 mix +, 5,000 μg/plate): 29 Revertants/Plate
Revertants/Plate (E. coli WP2 uvr A; S9 mix −, 312.5 μg/plate): 23 Revertants/Plate
Revertants/Plate (E. coli WP2 uvr A; S9 mix −, 625 μg/plate): 25 Revertants/Plate
Revertants/Plate (E. coli WP2 uvr A; S9 mix −, 1,250 μg/plate): 20 Revertants/Plate
Revertants/Plate (E. coli WP2 uvr A; S9 mix −, 2,500 μg/plate): 24 Revertants/Plate
Revertants/Plate (E. coli WP2 uvr A; S9 mix −, 5,000 μg/plate): 24 Revertants/Plate
Percent of Control (CYP1A1/2; 10 μM): 98.4% of Control
Percent of Control (CYP1A1/2; 30 μM): 102.5% of Control
Percent of Control (CYP1A1/2; 100 μM): 98.6% of Control
MIC [6]: 0.012 µg/mL (≈ 0.0225 µM)
IC50, α-Mycolic acid ([7]; 14C acetic acid incorporation, 60 min, TLC n = 3): >0.25 µg/mL
IC50 ([7]; 1 h, read-out: IC50, Fatty acid): > 0.25 µg/mL
IC50 ([7]; 1 h, read-out: IC50, Keto-mycolic acid): 0.021 µg/mL (≈ 0.0393 µM)
IC50 ([7]; 1 h, read-out: IC50, Methoxy-mycolic acid): 0.036 µg/mL (≈ 0.0674 µM)
IC50 ([7]; 1 h, read-out: IC50, α-Mycolic acid): > 0.25 µg/mL
IC50 ([7]; read-out: IC50 values, synthesis of methoxy- and keto-mycolic acid): 0.021 to 0.036 µg/mL (≈ 0.0393 to 0.0674 µM)
MIC [8]: 0.012 µg/mL (≈ 0.0225 µM)
Percent of Control (CYP2D6; 10 μM): 99.1% of Control
Percent of Control (CYP2D6; 30 μM): 103.3% of Control
Percent of Control (CYP2D6; 100 μM): 97.8% of Control
MIC [9]: 0.012 µg/mL (≈ 0.0225 µM)
